Assay results: US20250176554A1, “NON-TOXIC […] IN WHICH OZONE SYNERGIZE WITH CARBON DIOXIDE” (priority 2022, published 2025)

Legend:
dried apricot pests = settings: CO2 under 0.5 times atmospheric pressure; cited from earlier work
mite eggs = settings: vacuum pumping then 60% CO2, normal temperature and normal pressure, at least 16 hours; cited from earlier work
aphids = settings: 10% CO2 in greenhouses; cited from earlier work
pests [1] = settings: 60% CO2, asparagus; cited from earlier work
pests [2] = settings: CO2 with 1.8 times of the standard atmospheric pressure; cited from earlier work
red flour beetle = settings: pressurized CO2, 5 times to 15 times of the standard atmospheric pressure; cited from earlier work
Icerya purchasi = experiment: two-stage ozone then carbon dioxide fumigation, lethal rate by staining; format: in vivo
Excerpt: (§1) Step 1: Placing the pest control object into a sample bottle, which contains coccid insects, and sealing the sample bottle with a pore size of 10 um filter membrane. This configuration simulates the environment of insects or other creatures hiding deep inside fruits, within stems, or shielded by stacked fruit packages (this test was also validated using stacked sugar apples and wax apples, yielding similar results). The sample is then placed in a fumigation chamber.
(§2) Step 2: After closing the fumigation chamber, vacuuming the chamber to 0.2 bar-0.9 bar, then maintaining this lower pressure for about 2 minutes to confirm that the fumigation chamber is well sealed.
(§3) Step 3: Introducing ozone at a concentration ranging from 40 ppm to 160 ppm into the fumigation chamber until 1.0-1.7 bar, and fumigating for 3-20 minutes.
(§4) Step 4: Exhausting the gas from the fumigation chamber, then vacuuming it to 0.2-0.9 bar, and maintaining this low pressure for about 2 minutes.
(§5) Step 5: Introducing high-concentration carbon dioxide into the fumigation chamber until 1.0-1.7 bar, fumigating for 10-30 minutes.
(§6) Step 6: After the above pest control steps, exhausting the gases from the fumigation chamber and restoring the chamber to atmospheric pressure, then removing the tested objects.
(§7) Step 7: Spraying 0.5 wt % methylene blue aqueous solution (light blue) or 0.05 wt % neutral red staining solution (light red) onto the insects and waiting for 60 minutes. Well-stained insects indicate death. All values are expressed as mean±SD. ANOVA or other appropriate statistical analysis methods were used, with P<0.05 indicating a significant difference.
(§8) Using the same method as Embodiment 1, except that the concentration of the introduced ozone is adjusted (ranging from 40 ppm to 160 ppm). The pressure of the fumigation chamber in Step 2 is about 0.3 bar; in Step 3, it is about 1.3 bar, with the process lasting 5 minutes; in Step 4, it is about 0.3 bar; and in Step 5, the pressure is 1.3 bar, with the process lasting 15 minutes.
(§9) Using the same method as Embodiment 2, except that the evacuation pressure in Step 2 is adjusted (ranging from 0.2 bar to 0.9 bar); the concentration of the introduced ozone is approximately 70 ppm, and other parameters remain the same as those in Embodiment 2.
(§10) Using the same method as Embodiment 2, except that the ozone treatment duration in […] is adjusted (ranging from 3 to 30 minutes); the concentration of the introduced ozone is 70 ppm, and ozone is introduced until the pressure reaches 1.0 bar. Other parameters remain the same as those in Embodiment 2.
(§11) Using the same method as Embodiment 1, except that the treatment period of carbon dioxide is adjusted to 10-50 minutes. The evacuation pressure in the fumigation chamber in Step 2 is 0.3 bar. In Step 3, the pressure after the ozone input is controlled within 1.0-1.4 bar, and the pest-control treatment is conducted for 5 minutes. In Step 4, the fumigation chamber is evacuated to 0.3 bar. In Step 5, the pressure after the input of carbon dioxide (99.5% concentration) is controlled at 1.4 bar, and the pest-control treatment is conducted for 10-50 minutes.

Pseudococcidae = experiment: as above; format: in vivo
Excerpt: as §1, §2, §3, §4, §5, §6, §7, §8, §9, §10, §11

coccid insects = experiment: two-stage ozone then carbon dioxide fumigation, text statements on the insects/pests; format: in vivo
Excerpt: as §1, §2, §3, §4, §5, §6, §7

silkworm eggs = experiment: ozone then carbon dioxide fumigation of silkworm eggs, hatching; format: in vivo; settings: ozone pressure 1.4 bar; carbon dioxide introduced for 20 minutes
Protocol: as §11
Using the same experimental conditions as Embodiment 5, when the ozone pressure is 1.4 bar, silkworm eggs were used for testing.

[3] = ozone at 1.0 bar 5 min, evacuation 0.3 bar, CO2 99.5% at 1.4 bar for 10 min
[4] = ozone at 1.0 bar 5 min, evacuation 0.3 bar, CO2 99.5% at 1.4 bar for 15 min
[5] = ozone at 1.0 bar 5 min, evacuation 0.3 bar, CO2 99.5% at 1.4 bar for 20 min
[6] = ozone at 1.0 bar 5 min, evacuation 0.3 bar, CO2 99.5% at 1.4 bar for 30 min
[7] = ozone at 1.0 bar 5 min, evacuation 0.3 bar, CO2 99.5% at 1.4 bar for 40 min
[8] = ozone at 1.4 bar 5 min, evacuation 0.3 bar, CO2 99.5% at 1.4 bar for 10 min
[9] = ozone at 1.4 bar 5 min, evacuation 0.3 bar, CO2 99.5% at 1.4 bar for 15 min
[10] = ozone at 1.4 bar 5 min, evacuation 0.3 bar, CO2 99.5% at 1.4 bar for 20 min
[11] = ozone at 1.4 bar 5 min, evacuation 0.3 bar, CO2 99.5% at 1.4 bar for 30 min
[12] = ozone at 1.4 bar 5 min, evacuation 0.3 bar, CO2 99.5% at 1.4 bar for 40 min
[13] = Step 2 vacuumed pressure 0.2 bar, ozone 70 ppm to 1.3 bar 5 min, then CO2 1.3 bar 15 min
[14] = Step 2 vacuumed pressure 0.3 bar, ozone 70 ppm to 1.3 bar 5 min, then CO2 1.3 bar 15 min
[15] = Step 2 vacuumed pressure 0.4 bar, ozone 70 ppm to 1.3 bar 5 min, then CO2 1.3 bar 15 min
[16] = Step 2 vacuumed pressure 0.5 bar, ozone 70 ppm to 1.3 bar 5 min, then CO2 1.3 bar 15 min
[17] = Step 2 vacuumed pressure 0.6 bar, ozone 70 ppm to 1.3 bar 5 min, then CO2 1.3 bar 15 min
[18] = Step 2 vacuumed pressure 0.9 bar, ozone 70 ppm to 1.3 bar 5 min, then CO2 1.3 bar 15 min
[19] = ozone 40 ppm to 1.3 bar 5 min, evacuation 0.3 bar, then CO2 1.3 bar 15 min
[20] = ozone 70 ppm to 1.0 bar for 3 min, evacuation 0.3 bar, then CO2 1.3 bar 15 min
[21] = ozone 70 ppm to 1.0 bar for 5 min, evacuation 0.3 bar, then CO2 1.3 bar 15 min
[22] = ozone 70 ppm to 1.0 bar for 10 min, evacuation 0.3 bar, then CO2 1.3 bar 15 min
[23] = ozone 70 ppm to 1.0 bar for 15 min, evacuation 0.3 bar, then CO2 1.3 bar 15 min
[24] = ozone 70 ppm to 1.0 bar for 20 min, evacuation 0.3 bar, then CO2 1.3 bar 15 min
[25] = ozone 70 ppm to 1.0 bar for 30 min, evacuation 0.3 bar, then CO2 1.3 bar 15 min
[26] = ozone 70 ppm to 1.3 bar 5 min, evacuation 0.3 bar, then CO2 1.3 bar 15 min
[27] = ozone 100 ppm to 1.3 bar 5 min, evacuation 0.3 bar, then CO2 1.3 bar 15 min
[28] = ozone 130 ppm to 1.3 bar 5 min, evacuation 0.3 bar, then CO2 1.3 bar 15 min
[29] = ozone 160 ppm to 1.3 bar 5 min, evacuation 0.3 bar, then CO2 1.3 bar 15 min

O=C=O [CO2, carbon dioxide]
time required to kill 90% of pests (dried apricot pests): over 24 hours
mortality of mite eggs (mite eggs): 89%
time required to achieve minimal pest control effects (aphids): one week
time required to achieve minimal pest control (pests [1]): more than 48 hours
time required to achieve the minimal pest control (pests [2]): at least 120 minutes
time required to kill most of the pests (red flour beetle): at least 1.8 days
Lethal rate (Icerya purchasi; [3]): 72 ± 11%
Lethal rate (Icerya purchasi; [4]): 88 ± 11%
Lethal rate (Icerya purchasi; [5]): 97 ± 4%
Lethal rate (Icerya purchasi; [6]): 100 ± 0%
Lethal rate (Icerya purchasi; [7]): 100 ± 0%
Lethal rate (Icerya purchasi; [8]): 92 ± 11%
Lethal rate (Icerya purchasi; [9]): 100 ± 0%
Lethal rate (Icerya purchasi; [10]): 100 ± 0%
Lethal rate (Icerya purchasi; [11]): 100 ± 0%
Lethal rate (Icerya purchasi; [12]): 100 ± 0%
Lethal rate (Pseudococcidae; [3]): 81 ± 6%
Lethal rate (Pseudococcidae; [4]): 91 ± 8%
Lethal rate (Pseudococcidae; [5]): 100 ± 1%
Lethal rate (Pseudococcidae; [6]): 100 ± 0%
Lethal rate (Pseudococcidae; [7]): 100 ± 0%
Lethal rate (Pseudococcidae; [8]): 89 ± 8%
Lethal rate (Pseudococcidae; [9]): 100 ± 1%
Lethal rate (Pseudococcidae; [10]): 100 ± 0%
Lethal rate (Pseudococcidae; [11]): 100 ± 0%
Lethal rate (Pseudococcidae; [12]): 100 ± 0%

O=[O+][O-] [ozone]
Lethal rate (Icerya purchasi; [13]): 100 ± 0%
Lethal rate (Icerya purchasi; [14]): 96 ± 3%
Lethal rate (Icerya purchasi; [15]): 85 ± 12%
Lethal rate (Icerya purchasi; [16]): 68 ± 17%
Lethal rate (Icerya purchasi; [17]): 48 ± 16%
Lethal rate (Icerya purchasi; [18]): 37 ± 18%
Lethal rate (Icerya purchasi; [19]): 76 ± 10%
Lethal rate (Icerya purchasi; [20]): 64 ± 14%
Lethal rate (Icerya purchasi; [21]): 68 ± 9%
Lethal rate (Icerya purchasi; [22]): 87 ± 9%
Lethal rate (Icerya purchasi; [23]): 100 ± 1%
Lethal rate (Icerya purchasi; [24]): 100 ± 0%
Lethal rate (Icerya purchasi; [25]): 100 ± 0%
Lethal rate (Icerya purchasi; [26]): 98 ± 3%
Lethal rate (Icerya purchasi; [27]): 100 ± 0%
Lethal rate (Icerya purchasi; [28]): 100 ± 0%
Lethal rate (Icerya purchasi; [29]): 100 ± 0%
Lethal rate (Pseudococcidae; [13]): 100 ± 0%
Lethal rate (Pseudococcidae; [14]): 91 ± 5%
Lethal rate (Pseudococcidae; [15]): 82 ± 10%
Lethal rate (Pseudococcidae; [16]): 71 ± 13%
Lethal rate (Pseudococcidae; [17]): 52 ± 14%
Lethal rate (Pseudococcidae; [18]): 30 ± 17%
Lethal rate (Pseudococcidae; [19]): 81 ± 11%
Lethal rate (Pseudococcidae; [20]): 61 ± 16%
Lethal rate (Pseudococcidae; [21]): 71 ± 10%
Lethal rate (Pseudococcidae; [22]): 91 ± 7%
Lethal rate (Pseudococcidae; [23]): 100 ± 0%
Lethal rate (Pseudococcidae; [24]): 100 ± 0%
Lethal rate (Pseudococcidae; [25]): 100 ± 0%
Lethal rate (Pseudococcidae; [26]): 93 ± 7%
Lethal rate (Pseudococcidae; [27]): 100 ± 0%
Lethal rate (Pseudococcidae; [28]): 100 ± 0%
Lethal rate (Pseudococcidae; [29]): 100 ± 0%
Lethal rate (coccid insects; ozone 70 ppm, 90 minutes after the treatment in Step 3): 100%
final lethal rate (coccid insects; vacuum pressure 0.4 or 0.5 bar, ozone 70 ppm, after 90 minutes of ozone treatment): 100%

ozone and carbon dioxide
hatching of silkworm eggs (silkworm eggs): none of the silkworm eggs in the experimental group hatched
time to completely kill the pests (coccid insects; ozone 5 minutes at 1.0 bar, in synergy with carbon dioxide): about 30 minutes
time to completely kill the pests (coccid insects; ozone 5 minutes at 1.4 bar, then carbon dioxide): 15 min
pest control / pest elimination (coccid insects; two-stage fumigation, within 20 minutes): 100%
